In patent publication US8921267B2, “Safening 6-(trisubstituted phenyl)-4-amino-2-pyridinecarboxylate herbicide injury on cereal crops” (Dow AgroSciences LLC, priority 2008, dated 2014):

Experiments:
[1] = tested on: wild buckwheat (Polygonum convolvulus L; POLCO); experiment: Postemergence herbicidal activity, greenhouse, visual injury: wild buckwheat; format: in vivo
Protocol: (§1) Evaluation of Postemergence Herbicidal Safening in Cereal Crops
(§2) Seeds of the desired test plant species were planted in Sun Gro MetroMix® 306 planting mixture, which typically has a pH of 6.0 to 6.8 and an organic matter content of about 30 percent, in plastic pots with a surface area of 103.2 square centimeters (cm^2). When required to ensure good germination and healthy plants, a fungicide treatment and/or other chemical or physical treatment was applied. The plants were grown for 7-36 days (d) in a greenhouse with an approximate 14-hour (h) photoperiod which was maintained at about 18° C. during the day and 17° C. during the night. Nutrients and water were added on a regular basis and supplemental lighting was provided with overhead metal halide 1000-Watt lamps as necessary. The plants were employed for testing when they reached the second or third true leaf stage.
(§3) Weighed amounts of esters (methyl) or salts (TEA [triethylammonium], K [potassium]) of 4-amino-3-chloro-6-(4-chloro-2-fluoro-3-methoxyphenyl)pyridine-2-carboxylic acid (Compound 1) were dissolved in a volume of 97:3 volume/volume (v/v) acetone/dimethylsulfoxide (DMSO) to obtain stock solutions. […] The concentrated stock solutions were diluted with an aqueous mixture of 1.5% v/v of Agri-dex crop oil concentrate to provide the appropriate application rates. Compound requirements are based upon a 12 mL application volume at a rate of 187 liters per hectare (L/ha). Stocks solutions of the safeners were prepared following the same procedure. Spray solutions of the safeners and experimental compound mixtures were prepared by adding the stock solutions to the appropriate amount of dilution solution to form a 12 mL spray solution with active ingredients in two-way combinations. Formulated compounds were applied to the plant material with an overhead Mandel track sprayer equipped with 8002E nozzles calibrated to deliver 187 L/ha over an application area of 0.503 square meters (m^2) at a spray height of 18 inches (43 centimeters (cm)) above average plant canopy. Control plants were sprayed in the same manner with the solvent blank.
(§4) The treated plants and control plants were placed in a greenhouse as described above and watered by sub-irrigation to prevent wash-off of the test compounds. After 20-22 d, the condition of the test plants as compared with that of the control plants was determined visually and scored on a scale of 0 to 100 percent where 0 corresponds to no injury and 100 corresponds to complete kill.
(§5) Colby's equation was used to determine the herbicidal effects expected from the mixtures (Colby, S. R. Calculation of the synergistic and antagonistic response of herbicide combinations. Weeds 1967, 15, 20-22.).
(§6) The following equation was used to calculate the expected activity of mixtures containing two active ingredients, A and B: Expected=A+B−(A×B/100)
(§7) A=observed efficacy of active ingredient A at the same concentration as used in the mixture.
(§8) B=observed efficacy of active ingredient B at the same concentration as used in the mixture.

[2] = tested on: Russian thistle (Salsola iberica L; SASKR); experiment: Postemergence herbicidal activity, greenhouse, visual injury: Russian thistle; format: in vivo; design: key: visual injury, 0–100%: 0 = no injury, 100 = complete kill
Protocol: as §1, §2, §3, §4, §5, §6, §7, §8

[3] = tested on: wheat (Triticum aestivum L; TRZAS); experiment: Postemergence herbicidal safening, greenhouse, visual injury: wheat; format: in vivo
Protocol: as §1, §2, §3, §4, §5, §6, §7, §8

[4] = tested on: cleavers (Galium aparine L; GALAP); experiment: Postemergence herbicidal activity, greenhouse, visual injury: cleavers; format: in vivo; design: key: visual injury, 0–100%: 0 = no injury, 100 = complete kill
Protocol: as §1, §2, §3, §4, §5, §6, §7, §8

[5] = tested on: wheat (Triticum aestivum L; TRZAW); experiment: Postemergence herbicidal safening, greenhouse, visual injury: wheat (TRZAW); format: in vivo
Protocol: as §1, §2, §3, §4, §5, §6, §7, §8

barley (HORVW) = experiment: Postemergence herbicidal safening, greenhouse, visual injury: barley (HORVW)
[6] = tested on: bird's-eye speedwell (Veronica persica L; VERPE); experiment: Postemergence herbicidal activity, greenhouse, visual injury: bird's-eye speedwell; format: in vivo; design: key: visual injury, 0–100%: 0 = no injury, 100 = complete kill
Protocol: as §1, §2, §3, §4, §5, §6, §7, §8

[7] = tested on: durum wheat (Triticum durum L; TRZDU); experiment: Postemergence herbicidal safening, greenhouse, visual injury: durum wheat; format: in vivo
Protocol: as §1, §2, §3, §4, §5, §6, §7, §8

[8] = tested on: barley (Hordeum vulgare L; HORVS); experiment: Postemergence herbicidal safening, greenhouse, visual injury: barley; format: in vivo
Protocol: as §1, §2, §3, §4, §5, §6, §7, §8

[9] = tested on: corn poppy (Papaver rhoeas L; PAPRH); experiment: Postemergence herbicidal activity, greenhouse, visual injury: corn poppy; format: in vivo
Protocol: as §1, §2, §3, §4, §5, §6, §7, §8

[10] = tested on: chickweed (Stellaria media L; STEME); experiment: Postemergence herbicidal activity, greenhouse, visual injury: chickweed; format: in vivo; design: key: visual injury, 0–100%: 0 = no injury, 100 = complete kill
Protocol: as §1, §2, §3, §4, §5, §6, §7, §8

[11] = tested on: wild pansy (Viola tricolor L; VIOTR); experiment: Postemergence herbicidal activity, greenhouse, visual injury: wild pansy; format: in vivo; design: key: visual injury, 0–100%: 0 = no injury, 100 = complete kill
Protocol: as §1, §2, §3, §4, §5, §6, §7, §8

[12] = tested on: purple deadnettle (Lamium purpureum L; LAMPU); experiment: Postemergence herbicidal activity, greenhouse, visual injury: purple deadnettle; format: in vivo; design: key: visual injury, 0–100%: 0 = no injury, 100 = complete kill
Protocol: as §1, §2, §3, §4, §5, §6, §7, §8

Compound: CC1COc2ccccc2N1C(=O)C(Cl)Cl (racemic) [Benoxacor, (±)-4-(dichloroacetyl)-3,4-dihydro-3-methyl-2H-1,4-benzoxazine, reference compound]
- POLCO Ob ([1]; applied alone at 17.5 g/ha): 0%
- POLCO Ob ([1]; applied alone at 35 g/ha): 0%
- POLCO Ob ([1]; applied alone at 70 g/ha): 0%
- POLCO Ob ([1]; applied alone at 140 g/ha): 0%
- SASKR Ob ([2]; applied alone at 17.5 g/ha): 0%
- SASKR Ob ([2]; applied alone at 35 g/ha): 0%
- SASKR Ob ([2]; applied alone at 70 g/ha): 0%
- SASKR Ob ([2]; applied alone at 140 g/ha): 0%
- TRZAS Ob ([3]; applied alone at 17.5 g/ha): 0%
- TRZAS Ob ([3]; applied alone at 35 g/ha): 0%
- TRZAS Ob ([3]; applied alone at 70 g/ha): 0%
- TRZAS Ob ([3]; applied alone at 140 g/ha): 0%
- GALAP Ob ([4]; applied alone at 17.5 g/ha): 0%
- GALAP Ob ([4]; applied alone at 35 g/ha): 0%
- GALAP Ob ([4]; applied alone at 70 g/ha): 0%
- GALAP Ob ([4]; applied alone at 140 g/ha): 0%
- TRZAW Ob (Observed values) ([5]; safener 4.4 g/ha alone): 0%
- TRZAW Ob (Observed values) ([5]; safener 8.8 g/ha alone): 0%
- TRZAW Ob (Observed values) ([5]; safener 17.5 g/ha alone): 0%
- TRZAW Ob (Observed values) ([5]; safener 35 g/ha alone): 0%
- HORVW Ob (Observed values) (barley (HORVW); safener 4.4 g/ha alone): 0%
- HORVW Ob (Observed values) (barley (HORVW); safener 8.8 g/ha alone): 0%
- HORVW Ob (Observed values) (barley (HORVW); safener 17.5 g/ha alone): 0%
- HORVW Ob (Observed values) (barley (HORVW); safener 35 g/ha alone): 0%
- VERPE Ob ([6]; applied alone at 17.5 g/ha): 0%
- VERPE Ob ([6]; applied alone at 35 g/ha): 0%
- VERPE Ob ([6]; applied alone at 70 g/ha): 0%
- VERPE Ob ([6]; applied alone at 140 g/ha): 0%
- TRZDU Ob (Observed values) ([7]; safener 4.4 g/ha alone): 0%
- TRZDU Ob (Observed values) ([7]; safener 8.8 g/ha alone): 0%
- TRZDU Ob (Observed values) ([7]; safener 17.5 g/ha alone): 0%
- TRZDU Ob (Observed values) ([7]; safener 35 g/ha alone): 0%
- HORVS Ob ([8]; applied alone at 17.5 g/ha): 0%
- HORVS Ob ([8]; applied alone at 35 g/ha): 0%
- HORVS Ob ([8]; applied alone at 70 g/ha): 0%
- HORVS Ob ([8]; applied alone at 140 g/ha): 0%
- PAPRH Ob ([9]; applied alone at 17.5 g/ha): 0%
- PAPRH Ob ([9]; applied alone at 35 g/ha): 0%
- PAPRH Ob ([9]; applied alone at 70 g/ha): 0%
- PAPRH Ob ([9]; applied alone at 140 g/ha): 0%
- PAPRH Ob (Observed values) ([9]; safener 4.4 g/ha alone): 0
- PAPRH Ob (Observed values) ([9]; safener 8.8 g/ha alone): 0
- PAPRH Ob (Observed values) ([9]; safener 17.5 g/ha alone): 0
- PAPRH Ob (Observed values) ([9]; safener 35 g/ha alone): 0
- STEME Ob ([10]; applied alone at 17.5 g/ha): 0%
- STEME Ob ([10]; applied alone at 35 g/ha): 0%
- STEME Ob ([10]; applied alone at 70 g/ha): 0%
- STEME Ob ([10]; applied alone at 140 g/ha): 0%
- VIOTR Ob ([11]; applied alone at 17.5 g/ha): 0%
- VIOTR Ob ([11]; applied alone at 35 g/ha): 0%
- VIOTR Ob ([11]; applied alone at 70 g/ha): 0%
- VIOTR Ob ([11]; applied alone at 140 g/ha): 0%
- LAMPU Ob (Observed values) ([12]; safener 4.4 g/ha alone): 0
- LAMPU Ob (Observed values) ([12]; safener 8.8 g/ha alone): 0
- LAMPU Ob (Observed values) ([12]; safener 17.5 g/ha alone): 0
- LAMPU Ob (Observed values) ([12]; safener 35 g/ha alone): 0

Compound: CC1(C)CN2C(=O)CCC2(C)N(C(=O)C(Cl)Cl)C1 (racemic) [Dicyclonon, (RS)-1-dichloroacetyl-3,3,8a-trimethylperhydropyrrolo[1,2]pyrimidin-6-one, reference compound]
- POLCO Ob ([1]; applied alone at 17.5 g/ha): 0%
- POLCO Ob ([1]; applied alone at 35 g/ha): 0%
- POLCO Ob ([1]; applied alone at 70 g/ha): 0%
- POLCO Ob ([1]; applied alone at 140 g/ha): 0%
- SASKR Ob ([2]; applied alone at 17.5 g/ha): 0%
- SASKR Ob ([2]; applied alone at 35 g/ha): 0%
- SASKR Ob ([2]; applied alone at 70 g/ha): 0%
- SASKR Ob ([2]; applied alone at 140 g/ha): 0%
- TRZAS Ob ([3]; applied alone at 17.5 g/ha): 0%
- TRZAS Ob ([3]; applied alone at 35 g/ha): 0%
- TRZAS Ob ([3]; applied alone at 70 g/ha): 0%
- TRZAS Ob ([3]; applied alone at 140 g/ha): 0%
- GALAP Ob ([4]; applied alone at 17.5 g/ha): 0%
- GALAP Ob ([4]; applied alone at 35 g/ha): 0%
- GALAP Ob ([4]; applied alone at 70 g/ha): 0%
- GALAP Ob ([4]; applied alone at 140 g/ha): 0%
- HORVW Ob (Observed values) (barley (HORVW); safener 4.4 g/ha alone): 0%
- HORVW Ob (Observed values) (barley (HORVW); safener 8.8 g/ha alone): 0%
- HORVW Ob (Observed values) (barley (HORVW); safener 17.5 g/ha alone): 0%
- HORVW Ob (Observed values) (barley (HORVW); safener 35 g/ha alone): 0%
- VERPE Ob ([6]; applied alone at 17.5 g/ha): 0%
- VERPE Ob ([6]; applied alone at 35 g/ha): 0%
- VERPE Ob ([6]; applied alone at 70 g/ha): 0%
- VERPE Ob ([6]; applied alone at 140 g/ha): 0%
- HORVS Ob ([8]; applied alone at 17.5 g/ha): 0%
- HORVS Ob ([8]; applied alone at 35 g/ha): 0%
- HORVS Ob ([8]; applied alone at 70 g/ha): 0%
- HORVS Ob ([8]; applied alone at 140 g/ha): 0%
- PAPRH Ob ([9]; applied alone at 17.5 g/ha): 0%
- PAPRH Ob ([9]; applied alone at 35 g/ha): 0%
- PAPRH Ob ([9]; applied alone at 70 g/ha): 0%
- PAPRH Ob ([9]; applied alone at 140 g/ha): 0%
- PAPRH Ob (Observed values) ([9]; safener 4.4 g/ha alone): 0
- PAPRH Ob (Observed values) ([9]; safener 8.8 g/ha alone): 0
- PAPRH Ob (Observed values) ([9]; safener 17.5 g/ha alone): 0
- PAPRH Ob (Observed values) ([9]; safener 35 g/ha alone): 0
- STEME Ob ([10]; applied alone at 17.5 g/ha): 0%
- STEME Ob ([10]; applied alone at 35 g/ha): 0%
- STEME Ob ([10]; applied alone at 70 g/ha): 0%
- STEME Ob ([10]; applied alone at 140 g/ha): 0%
- VIOTR Ob ([11]; applied alone at 17.5 g/ha): 0%
- VIOTR Ob ([11]; applied alone at 35 g/ha): 0%
- VIOTR Ob ([11]; applied alone at 70 g/ha): 0%
- VIOTR Ob ([11]; applied alone at 140 g/ha): 0%
- LAMPU Ob (Observed values) ([12]; safener 4.4 g/ha alone): 0
- LAMPU Ob (Observed values) ([12]; safener 8.8 g/ha alone): 0
- LAMPU Ob (Observed values) ([12]; safener 17.5 g/ha alone): 0
- LAMPU Ob (Observed values) ([12]; safener 35 g/ha alone): 0
